Test results from patent US7153837B2, “Agent for protection of retinal neurons” (Ortho-McNeil Pharmaceutical Inc., priority 2001, dated 2006).

What was measured:
[1] = tested on: cultured retinal neurons of rat fetus; test: glutamate-induced death of cultured retinal neurons of rat fetus (trypan blue exclusion); assay type: cell-based; settings: for Survival rate of cultured retinal neurons (%): 10 min, then 1 h drug-free, untreated 67, glutamate alone 46
Method: (1) Topiramate's Action on the Glutamate-Induced Death of Cultured Retinal Neurons of Rat Fetus: From rat fetuses (aged 17 to 19 days), retinal cells were taken out and isolated, and were cultured on a polyethylene-imine-coated plastic-covered slip in a 10% bovine fetal serum-containing Eagle's basal medium for seven days. From the eighth day, they were cultured in a 10% equine serum-containing Eagle's basal medium. On the sixth day of culture, cytosine arabinoside (10 μM) was added to inhibit the proliferation of non-neuronal cells. Next, the cells were incubated (37° C., 5% CO2.95% air) for 10 minutes in a medium which had been prepared by adding glutamate (1 mM) and topiramate in various concentrations (10 nM˜100 μM) to serum-free Eagle's basal medium. Then, cells were returned to serum-free Eagle's basal medium which contained neither glutamate nor topiramate, and were incubated (37° C., 5% CO2.95% air) for one hour, and, thereafter, toxicity was determined by trypan blue exclusion method. In detail, cells were immobilized with 10% neutral formalin solution, and were washed with physiological saline. Then, cells were dyed by adding trypan blue solution, and, thus, the number of cells was counted by phase-contrast microscope. Cells which had been dyed with trypan blue were regarded as dead, and non-dyed cells as surviving, and, thus, the survival rate of cultured cells was found from the proportion of the number of surviving cells to the number of total cells counted (at least 200). The group to which 1 mM of glutamate had been added and the group to which both 1 mM of glutamate and topiramate in various concentrations had been added are respectively called “Single 1 mM glutamate added group” and “1 mM glutamate+topiramate (various concentrations) added group”. Results concerning these groups were compared with the corresponding measured values of “Untreated group”, i.e., a group which had received no treatments. The values in the table are average values.

[2] = tested on: ischemia-induced retinal damage; test: ischemia-induced retinal damage in rat (ischemia-reperfusion, retinal histology); assay type: in vivo
Description: (2) Topiramate's Action on Ischemia-Induced Retinal Damage in Rat:
Anesthesia was indued in rat with 3% halothane, and, then, anesthesia was maintained with 1% halothane (halothane was vaporized with 0.5 l oxygen/min. and 1.5 l dinitrogen monoxider/min.). Next, mydriasis was caused in right eye with atropine, and, then, 30 G injection needle which was connected with a vessel of physiological saline for instillation via a tube hung from the ceiling was stuck into anterior chamber, and, thus, a 130 mmHg hydraulic pressure was given, and ischemia was thereby induced After 45 minutes, the injection needle was removed, and retinal blood flow was allowed to make reperfusion. Administration was conducted by intraperitoneal injection into rats with physiological saline (solvent) and topiramate (200 mg/kg body weight) dissolved (partially suspended) in solvent, respectively. The administration was carried out twice respectively, i.e., two hours before and immediately after inschemia. Seven days after the administration, eyeball was taken out, immobilized overnight in 2% paraformaldehyde-2.5% glutaraldehyde, subjected to paraffin embedding, and was sectioned, and, thus, retinal slices (with a thickness of 3 μm) stained with hematoxylin-eosin (HE) were prepared. From eight slices which had been cut with an interval of 60 μm per one eyeball so that optic nerve head might be covered, three slices were optionally selected. With regard to thus selected three slices, there was taken a photograph of retina in the range of 1 to 1.5 mm on the left or right side from optic nerve head, and, thus, the number of cells in ganglion cell layer (GCL) in retina and the thickness of inner plaxiform layer (IPL) were measured. The group to which solvent had been administered and ischemia had been induced and the group to which topiramate dissolved in solvent had been administered and ischemia had been induced are respectively called “Solvent-administered group” and “Topiramate-administered group”. […]

CC1(C)O[C@@H]2[C@@H](CO[C@@]3(COS(N)(=O)=O)OC(C)(C)O[C@@H]23)O1 [topiramate, 2,3:4,5-bis-O-(1-methylethylidene)-β-D-fructopyranose sulfamate]
Survival rate of cultured retinal neurons (%) ([1]; 1 mM glutamate + 10 nM topiramate): 50%
Survival rate of cultured retinal neurons (%) ([1]; 1 mM glutamate + 100 nM topiramate): 58%
Survival rate of cultured retinal neurons (%) ([1]; 1 mM glutamate + 1 μM topiramate): 60%
Survival rate of cultured retinal neurons (%) ([1]; 1 mM glutamate + 10 μM topiramate): 64%
Survival rate of cultured retinal neurons (%) ([1]; 1 mM glutamate + 100 μM topiramate): 65%
effect on death (apoptosis) of cultured retinal neurons ([1]; 1 mM glutamate, topiramate 10 nM-100 μM, summary of Table 1): remarkably inhibit the death (apoptosis) of cultured retinal neurons in a concentration-dependent manner
Thickness of IPL (μm) ([2]; 200 mg/kg intraperitoneal twice (2 h before and immediately after 45 min ischemia), 7 days after, normal 49, solvent 21): 30 μm
Number of cells in GCL (number/mm) ([2]; 200 mg/kg intraperitoneal twice (2 h before and immediately after 45 min ischemia), 7 days after, normal 68, solvent 36): 44 number/mm
effect on decrease of number of cells in ganglion cell layer and thinning of inner plexiform layer ([2]; 200 mg/kg intraperitoneal, summary of Table 2): excellent in effectively preventing both the decrease of number of cells in ganglion cell layer and the thinning of inner plexiform layer
